Experimental data reported in ChEMBL document CHEMBL3616406, “Soluble epoxide hydrolase inhibitory activity of anthraquinone components from Aloe” (Bioorg Med Chem, 2015).
The source made the active and inactive calls. The calls are words filed in the database; no cut-off is given here.

How the values were obtained:
[1] = biological target: T1, Bifunctional epoxide hydrolase 2 (Homo sapiens) (UniProt P34913); experiment: Mixed-type inhibition of sEH (unknown origin) using PHOME as substrate assessed as formation of 6-methoxy-2-naphthaldehyde measured during 30 mins by Lineweaver-Burk plot analysis
T1 sequence (whole entry): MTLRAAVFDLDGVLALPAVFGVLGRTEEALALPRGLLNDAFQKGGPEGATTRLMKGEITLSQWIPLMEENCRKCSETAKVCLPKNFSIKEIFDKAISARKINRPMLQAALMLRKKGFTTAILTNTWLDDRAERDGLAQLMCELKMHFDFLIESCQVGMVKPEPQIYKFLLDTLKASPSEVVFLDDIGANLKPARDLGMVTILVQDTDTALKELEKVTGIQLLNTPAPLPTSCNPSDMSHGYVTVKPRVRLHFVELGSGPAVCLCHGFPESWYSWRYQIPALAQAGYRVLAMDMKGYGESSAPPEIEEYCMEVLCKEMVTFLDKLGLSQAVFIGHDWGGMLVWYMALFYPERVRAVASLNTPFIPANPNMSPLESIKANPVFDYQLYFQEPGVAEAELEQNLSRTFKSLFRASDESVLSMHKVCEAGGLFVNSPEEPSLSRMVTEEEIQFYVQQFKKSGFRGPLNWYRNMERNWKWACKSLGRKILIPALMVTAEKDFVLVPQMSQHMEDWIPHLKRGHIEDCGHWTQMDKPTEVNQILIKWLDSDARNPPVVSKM

[2] = biological target: T1, Bifunctional epoxide hydrolase 2 (Homo sapiens); experiment: Inhibition of sEH (unknown origin) using PHOME as substrate assessed as formation of 6-methoxy-2-naphthaldehyde at 100 uM measured during 1 hr by fluorescence photometric analysis relative to control
[3] = biological target: T2, Bifunctional epoxide hydrolase 2 (Homo sapiens, UniProt P34913); experiment: Mixed-type inhibition of sEH (unknown origin) using PHOME as substrate assessed as formation of 6-methoxy-2-naphthaldehyde measured during 30 mins by Dixon plot analysis
T2 sequence (P34913 whole entry): T1 sequence (whole entry)

[4] = biological target: T2, Bifunctional epoxide hydrolase 2; experiment: Inhibition of sEH (unknown origin) using PHOME as substrate assessed as formation of 6-methoxy-2-naphthaldehyde measured during 1 hr by fluorescence photometric analysis
[5] = biological target: T2, Bifunctional epoxide hydrolase 2; experiment: Non-competitive inhibition of sEH (unknown origin) using PHOME as substrate assessed as formation of 6-methoxy-2-naphthaldehyde measured during 30 mins by Dixon plot analysis
[6] = biological target: T1, Bifunctional epoxide hydrolase 2 (Homo sapiens); experiment: Non-competitive inhibition of sEH (unknown origin) using PHOME as substrate assessed as formation of 6-methoxy-2-naphthaldehyde measured during 30 mins by Lineweaver-Burk plot analysis

| Structure (SMILES) | inhibition [1] | inhibition [2] | Ki [3] | IC50 [4] | Ki [5] | inhibition [6] |
| --- | --- | --- | --- | --- | --- | --- |
| O=C1c2c(O)cccc2[C@@H]([C@@H]2O[C@H](CO)[C@@H](O)[C@H](O)[C@H]2O)c2cc(CO)cc(O)c21 | Active | 62.8% | 27.8 µM | 41.1 µM |  |  |
| O=C1c2cccc(O)c2C(=O)c2c(O)cc(CO)cc21 [ALOE-EMODIN] |  | 79.9% |  | 26.8 µM | 52.2 µM | Active |
| C[C@@H]1O[C@@H](OCc2cc(O)c3c(c2)[C@](O)([C@@H]2O[C@H](CO)[C@@H](O)[C@H](O)[C@H]2O)c2cccc(O)c2C3=O)[C@H](O)[C@H](O)[C@H]1O | Active | 109% | 10.4 µM | 12.5 µM |  |  |
| Cc1cc(O)c2c(c1)[C@H]([C@@H]1O[C@H](CO)[C@@H](O)[C@H](O)[C@H]1O)c1cccc(O)c1C2=O | Active | 90.5% | 0.2 µM | 15.6 µM |  |  |
| O=C1c2c(O)cccc2C([C@@H]2O[C@H](CO)[C@@H](O)[C@H](O)[C@H]2O)c2cc(CO)cc(O)c21 (some centres not stated) [ALOIN] | Active | 73.9% | 57.3 µM | 37.4 µM |  |  |
| C[C@@H]1O[C@@H](OCc2cc(O)c3c(c2)[C@H]([C@@H]2O[C@H](CO)[C@@H](O)[C@H](O)[C@H]2O)c2cccc(O)c2C3=O)[C@H](O)[C@H](O)[C@H]1O | Active | 86.9% | 2 µM | 20.2 µM |  |  |
| O=C1c2cc(CO)cc(O)c2C(=O)c2c1ccc([C@]1([C@@H]3O[C@H](CO)[C@@H](O)[C@H](O)[C@H]3O)c3cccc(O)c3C(=O)c3c(O)cc(CO)cc31)c2O |  | 93.1% |  | 4.1 µM | 15.5 µM | Active |
| C[C@@H]1O[C@@H](OCc2cc(O)c3c(c2)[C@H]([C@@H]2OC[C@@H](O)[C@H](O)[C@H]2O)c2cccc(O)c2C3=O)[C@H](O)[C@H](O)[C@H]1O |  | 87% |  | 13.8 µM | 0.8 µM | Active |
